Test results: paper PMC9077138, “An investigation on 3-acetyl-7-methoxy-coumarin Schiff bases and their Ru(II) metallates with potent antiproliferative activity and enhanced LDH and NO release” (RSC Advances, 2018)
Where two headings read alike, the source gives them in different places.

What was measured:
S. aureus = test: In vitro antibacterial assay (zone of inhibition, MIC); assay type: cell-based, Staphylococcus aureus; conditions: for zone of inhibition at 50 µg/mL / zone of inhibition at 100 µg/mL: Staphylococcus aureus
Description: (§1) The free ligands and their cyclometallated ruthenium(II) carbonyl complexes were screened for their in vitro antimicrobial activity against certain pathogenic bacterial and fungal species at three different concentrations using disc diffusion method.
(§2) Antimicrobial activities of [RuHClCO(PPh3)3], ligands H2L^1–4 and new organometallic Ru(II) complexes (1–4) were evaluated by agar well diffusion method[76] as reported, by taking Staphylococcus aureus, Streptococcus pneumonie, Pseudomonas aeruginosa, Salmonella paratyphi and fungus such as Candida albicans, Trichophyton rubrum, Aspergillus niger, Aspergillus fumigatus and Candida tropicalis. The above said all test organisms were obtained from the MTCC, Chandigarh, India and Microbiological laboratory, Coimbatore, Tamil Nadu, India. The antimicrobial activity of the test compounds was checked with various concentrations (25 μg ml^−1, 50 μg ml^−1 and 100 μg ml^−1) against all the test pathogens. Gentamicin and ketoconazole were used as positive controls to study the antibacterial and antifungal activities respectively. Each experiment was performed in triplicate and the results are represented as average zone of inhibition and minimum inhibitory concentration of all the test pathogens.

S. pneumonie = test: as above; assay type: cell-based, Streptococcus pneumonie; conditions: for zone of inhibition at 50 µg/mL / zone of inhibition at 100 µg/mL: Streptococcus
Description: as §1, §2

P. aeruginosa = test: as above; assay type: cell-based, Pseudomonas aeruginosa; conditions: for zone of inhibition at 50 µg/mL / zone of inhibition at 100 µg/mL: Pseudomonas aeruginosa
Description: as §1, §2

S. paratyphi = test: as above; assay type: cell-based, Salmonella paratyphi; conditions: for zone of inhibition at 50 µg/mL / zone of inhibition at 100 µg/mL: Salmonella enterica
Text: The free ligands and their cyclometallated ruthenium(II) carbonyl complexes were screened for their in vitro antimicrobial activity against certain pathogenic bacterial and fungal species at three different concentrations using disc diffusion method. […] Tested complexes had better antimicrobial activity than the ligands against all pathogens. This may be explained by Tweedy's chelation theory.[61] Coordination of ligands reduce the polarity of the metal ion essentially by partial sharing of its positive charge with the donor groups within the chelate ring system formed during the coordination and leading to the increase in lipophilic nature of the central metal atom, which favours the effective permeation through the lipid layer of microorganism.[61,62] […] When tested against T. rubrum, the activity of the complexes in the order of 3 > 2 > 1 > 4. In antibacterial studies, the complex 3 was effective against S. aureus followed by complex 2, 1 and 4 and in the case of S. pneumonie the activity of the complexes follows the order of 3 > 1 > 4 > 2. […] When tested against S. paratyphi complex 1 stood out as good followed by the complexes 4, 3 and 2 respectively.
as §2

Aspergillus fumigatus = test: In vitro antifungal assay (zone of inhibition, MIC); assay type: cell-based
Description: as §1, §2

Aspergillus niger = test: as above; assay type: cell-based
Description: as §1, §2

Candida tropicalis = test: as above; assay type: cell-based
Description: as §1, §2

Trichophyton rubrum = test: as above; assay type: cell-based
Description: as §1, §2

C. albicans = test: as above; assay type: cell-based, Candida albicans; conditions: for zone of inhibition at 50 µg/mL / zone of inhibition at 100 µg/mL: Candida albicans
Description: as §1, §2

[1] = system: human breast cancer cell line MCF-7; test: MTT cytotoxicity assay; assay type: cell-based; conditions: read-out: IC50 values MCF-7
Text: (§3) The DNA/protein binding studies, antioxidant and antimicrobial studies had shown that the ligands and ruthenium(II) complexes studied here have therapeutic potentials and were subjected to study their anticancer activity. A number of coumarin derivatives have shown considerable anticancer activity against a number of cell lines. All the 3-acetyl-7-methoxy-coumarin-4(N)-substituted thiosemicarbazone ligands, metal precursor [RuHClCO(PPh3)3] and their new cyclometallated Ru(II) complexes were assessed for their cytotoxicity with two human derived cell lines namely human lung carcinoma (A549) and human breast cancer cells (MCF-7) by using MTT assay. For comparison purpose, cisplatin was used as a positive control under identical conditions.
(§4) Cytotoxic activity of the compounds was tested with human lung cancer cell lines A549, human breast cancer cell lines MCF-7 and human normal keratinocyte cells (HaCaT) by using MTT assay, which was done according to the earlier literature methods[77] and IC50 values obtained from nonlinear regression using GraphPad Prism 5.[78] The LDH release[79] and NO release[80] assays of the compounds was evaluated by the earlier reported methods.

[2] = system: human lung carcinoma cancer cell line A549; test: MTT cytotoxicity assay; assay type: cell-based; conditions: read-out: IC50 values A549
Text: as §3, §4

COc1ccc2cc(/C(C)=N\NC(=S)Nc3ccccc3)c(=O)oc2c1 [H2L^4, ((1E)-1-(1-(7-methoxy-2-oxo-2H-chromen-3-yl)ethylidene) 4(N)-phenylthiosemicarbazone)]
zone of inhibition at 50 µg/mL (S. aureus): 15.4 ± 0.52 mm
zone of inhibition at 100 µg/mL (S. aureus): 18.5 ± 0.73 mm
zone of inhibition at 50 µg/mL (S. pneumonie): 12.2 ± 0.43 mm
zone of inhibition at 100 µg/mL (S. pneumonie): 18.1 ± 0.22 mm
zone of inhibition at 50 µg/mL (P. aeruginosa): 12.1 ± 0.32 mm
zone of inhibition at 100 µg/mL (P. aeruginosa): 17.5 ± 0.65 mm
zone of inhibition at 50 µg/mL (S. paratyphi; 50 µg/ml): 12.2 ± 0.51 mm
zone of inhibition at 100 µg/mL (S. paratyphi; 100 µg/ml): 16.4 ± 0.51 mm
zone of inhibition at 50 µg/mL (Aspergillus fumigatus): 11.3 ± 0.33 mm
zone of inhibition at 100 µg/mL (Aspergillus fumigatus): 18.22 ± 0.14 mm
zone of inhibition at 50 µg/mL (Aspergillus niger): 12.5 ± 0.83 mm
zone of inhibition at 100 µg/mL (Aspergillus niger): 17.3 ± 0.21 mm
zone of inhibition at 50 µg/mL (Candida tropicalis): 12.2 ± 0.23 mm
zone of inhibition at 100 µg/mL (Candida tropicalis): 19.2 ± 0.32 mm
zone of inhibition at 50 µg/mL (Trichophyton rubrum): 12.4 ± 0.32 mm
zone of inhibition at 100 µg/mL (Trichophyton rubrum): 16.4 ± 0.66 mm
zone of inhibition at 50 µg/mL (C. albicans): 12.3 ± 0.21 mm
zone of inhibition at 100 µg/mL (C. albicans): 17.19 ± 0.15 mm
IC50 ([1]; Homo sapiens, MCF7, 48 h): 13.1 ± 0.25 µM
IC50 ([2]; Homo sapiens, A549, 48 h): 13.8 ± 0.18 µM

COc1ccc2[c]3c(c(=O)oc2c1)C(C)=[N+]1N=C(N)[S][Ru-4]31([C]#[O+])([P+](c1ccccc1)(c1ccccc1)c1ccccc1)[P+](c1ccccc1)(c1ccccc1)c1ccccc1 [Complex 1, [Ru(7MAC-tsc)(CO)(PPh3)2]]
Minimum inhibitory concentration (MIC); head: IC50 VALUES (S. aureus; S. aureus): 16.35 ± 0.21 µM
Zone of inhibition (S. aureus; S. aureus, 50 µg/ml): 12.16±0.11 mm
Zone of inhibition (S. aureus; S. aureus, 100 µg/ml): 18.09±0.15 mm
Minimum inhibitory concentration (MIC); head: IC50 VALUES (S. pneumonie; S. pneumonie): 15.86 ± 0.07 µM
Zone of inhibition (S. pneumonie; S. pneumonie, 50 µg/ml): 12.41±0.36 mm
Zone of inhibition (S. pneumonie; S. pneumonie, 100 µg/ml): 18.51±0.94 mm
Minimum inhibitory concentration (MIC); head: IC50 VALUES (P. aeruginosa; P. aeruginosa): 16.37 ± 0.19 µM
Zone of inhibition (P. aeruginosa; P. aeruginosa, 50 µg/ml): 13.23±0.32 mm
Zone of inhibition (P. aeruginosa; P. aeruginosa, 100 µg/ml): 16.66±0.44 mm
Zone of inhibition (S. paratyphi; 50 µg/ml): 12.55±0.04 mm
Zone of inhibition (S. paratyphi; 100 µg/ml): 18.95±0.31 mm
Minimum inhibitory concentration (MIC); head: IC50 VALUES (Aspergillus fumigatus): 15.56 ± 0.11 µM
Zone of inhibition (Aspergillus fumigatus; 50 µg/ml): 12.31±0.62 mm
Zone of inhibition (Aspergillus fumigatus; 100 µg/ml): 19.64±0.65 mm
Minimum inhibitory concentration (MIC); head: IC50 VALUES (Aspergillus niger): 15.89 ± 0.18 µM
Zone of inhibition (Aspergillus niger; 50 µg/ml): 11.74±0.26 mm
Zone of inhibition (Aspergillus niger; 100 µg/ml): 17.52±0.41 mm
Minimum inhibitory concentration (MIC); head: IC50 VALUES (Candida tropicalis): 15.15 ± 0.11 µM
Zone of inhibition (Candida tropicalis; 50 µg/ml): 12.82±0.34 mm
Zone of inhibition (Candida tropicalis; 100 µg/ml): 18.51±0.54 mm
Minimum inhibitory concentration (MIC); head: IC50 VALUES (Trichophyton rubrum): 15.29 ± 0.29 µM
Zone of inhibition (Trichophyton rubrum; 50 µg/ml): 11.57±0.22 mm
Zone of inhibition (Trichophyton rubrum; 100 µg/ml): 17.56±0.13 mm
Minimum inhibitory concentration (MIC); head: IC50 VALUES (C. albicans; C. albicans): 15.19 ± 0.15 µM
Zone of inhibition (C. albicans; C. albicans, 50 µg/ml): 12.22±0.41 mm
Zone of inhibition (C. albicans; C. albicans, 100 µg/ml): 18.91±0.41 mm
IC50 ([1]; MTT, 48 h): 2.86 ± 0.17 µM
IC50 ([2]; MTT, 48 h): 2.96 ± 0.07 µM

CCNC(=S)NN=C(C)c1cc2ccc(OC)cc2oc1=O [H2L^3, ((1E)-1-(1-(7-methoxy-2-oxo-2H-chromen-3-yl)ethylidene) 4(N)-ethylthiosemicarbazone)]
zone of inhibition at 50 µg/mL (S. aureus): 12.3 ± 0.41 mm
zone of inhibition at 100 µg/mL (S. aureus): 15.6 ± 0.65 mm
zone of inhibition at 50 µg/mL (S. pneumonie): 11.2 ± 0.15 mm
zone of inhibition at 100 µg/mL (S. pneumonie): 17.2 ± 0.21 mm
zone of inhibition at 50 µg/mL (P. aeruginosa): 12.5 ± 0.34 mm
zone of inhibition at 100 µg/mL (P. aeruginosa): 16.4 ± 0.23 mm
zone of inhibition at 50 µg/mL (S. paratyphi; 50 µg/ml): 12.2 ± 0.25 mm
zone of inhibition at 100 µg/mL (S. paratyphi; 100 µg/ml): 17.1 ± 0.32 mm
zone of inhibition at 50 µg/mL (Aspergillus fumigatus): 12.2 ± 0.51 mm
zone of inhibition at 100 µg/mL (Aspergillus fumigatus): 18.2 ± 0.24 mm
zone of inhibition at 50 µg/mL (Aspergillus niger): 12.6 ± 0.31 mm
zone of inhibition at 100 µg/mL (Aspergillus niger): 17.62 ± 0.12 mm
zone of inhibition at 50 µg/mL (Candida tropicalis): 12.3 ± 0.51 mm
zone of inhibition at 100 µg/mL (Candida tropicalis): 17.2 ± 0.51 mm
zone of inhibition at 50 µg/mL (Trichophyton rubrum): 13.56 ± 0.05 mm
zone of inhibition at 100 µg/mL (Trichophyton rubrum): 19.1 ± 0.21 mm
zone of inhibition at 50 µg/mL (C. albicans): 11.3 ± 0.12 mm
zone of inhibition at 100 µg/mL (C. albicans): 18.2 ± 0.22 mm
IC50 ([1]; Homo sapiens, MCF7, 48 h): 11.3 ± 0.21 µM
IC50 ([2]; Homo sapiens, A549, 48 h): 11.6 ± 0.15 µM
